The assay concerns the target T1, human renin (Homo sapiens, UniProt P00797).
T1 sequence (P00797 67-406): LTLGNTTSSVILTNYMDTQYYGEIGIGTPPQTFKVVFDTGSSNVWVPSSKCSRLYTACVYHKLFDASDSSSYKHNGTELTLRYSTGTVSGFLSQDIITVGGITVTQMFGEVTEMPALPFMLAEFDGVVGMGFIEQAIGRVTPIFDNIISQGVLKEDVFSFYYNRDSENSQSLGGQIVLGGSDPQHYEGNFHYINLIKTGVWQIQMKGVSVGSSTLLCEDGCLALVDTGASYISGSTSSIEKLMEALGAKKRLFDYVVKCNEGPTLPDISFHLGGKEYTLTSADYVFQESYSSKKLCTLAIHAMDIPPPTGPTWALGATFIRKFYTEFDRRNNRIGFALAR
The assay can be described thus: Determination of renin IC50 by tGFP FRET assay. It counts as biochemical. To be noted: Human recombinant renin, tandem GFP substrate 650 nM, 60 min incubation with compound, pH 7.4, 11-point curve. The text has this: Determination of Renin IC50 by tGFP FRET Assay
The tGFP FRET (fluorescence resonance energy transfer) assay utilizes a tandem GFP substrate (60 kDa, Discovery Technologies) containing nine amino acid recognition sequences for human renin flanked by two GFP proteins. The assay is used to determine the ability of a compound to act as an inhibitor of renin enzymatic activity by determination of that concentration of test compound that inhibits by 50% (IC50) the ability of renin to cleave the tandem GFP substrate. The IC50 values are determined over an 11-point curve at concentrations of 100 μM to 1 pM. Each compound concentration used to construct the curve was dependent on renin inhibitor potency. For example, subnanomolar IC50 values were determined over an 11-point curve at concentrations of 10 μM to 1 pM. All other IC50 values were determined over an 11-point curve at concentrations of 100 μM to 0.0065 μM. The concentrations were achieved by diluting a 9.1 nM stock of Human recombinant renin in the appropriate amount of buffer containing 50 mM HEPES, 1 mM EDTA, 1% PEG (8000 MW), 1 mM DTT, 0.1% BSA, pH 7.4 to achieve the final concentration of 50.4 μIU. The tGFP substrate stock solution of 43 μM was diluted with the appropriate amount of the above buffer to obtain the final concentration of 650 nM. In addition, 1 μl of the compound is diluted in dimethylsulfoxide (DMSO) to represent an […] log scale (5% final). The SR renin and compound are added to a 384 capacity plate by an automated robot (BIOMEK). The plate is incubated for 60 minutes; upon completion the tGFP substrate is added.
The IC50 is determined by monitoring the increase in […] at 432/432 nm excitation, 530/475 nm emission with a cutoff at 515/455 nm, in a fluorometric plate reader.

Some results are limits rather than exact numbers.

For orientation: IC50 means the concentration that gives 50% inhibition.

For `COc1ccccc1OCCCCOc1ccc(N2C(=O)CNC[C@@H]2COc2ccc3ccccc3c2)cc1` [Example 73, (6R)-1-{4-[4-(2-methoxyphenoxy)-butoxy]-phenyl}-6-(naphthalen-2-yloxymethyl)-piperazin-2-one], the IC50 is 1730 nM.

For the compound `COc1ccccc1COCCCOc1ccc(N2C(=O)CNC[C@@H]2COCc2ccc(F)cc2Cl)cc1` [Example 22, (6R)-6-(2-chloro-4-fluorobenzyloxymethyl)-1-{4-[3-(2-methoxybenzyloxy)-propoxy]-phenyl}-piperazin-2-one], the IC50 was more than 1000 nM.

With `COc1ccc(COC[C@H]2CNCC(=O)N2c2ccc(OCCCOCc3ccccc3OC)cc2)cc1` [Example 12, (6R)-6-(4-methoxybenzyloxymethyl)-1-{4-[3-(2-methoxybenzyloxy)-propoxy]-phenyl}-piperazin-2-one], the IC50 worked out at 3860 nM. On to `COc1ccccc1COCCCOc1ccc(N2CCNC[C@@H]2COc2ccc3c(c2)N(CCNC(C)=O)CCC3)cc1` [Example 125, N-{2-[7-([2R]-1-{4-[3-(2-Methoxybenzyloxy)-propoxy]-phenyl}-piperazin-2-ylmethoxy)-3,4-dihydro-2H-quinolin-1-yl]-ethyl}-acetamide], for which the IC50 came to 0.53 nM.

In the case of `COc1ccc(COC[C@H]2CNCCN2c2ccc(OCCCOCc3ccc(C)cc3)cc2)cc1` [Example 68, (2R)-2-(4-methoxybenzyloxymethyl)-1-{4-[3-(4-methylbenzyloxy)-propoxy]-phenyl}-piperazine], the IC50 was 60200 nM. Regarding `COc1ccccc1COCCCOc1ccc(N2C(=O)CNC[C@@H]2COCc2ccc(C(F)(F)F)cc2)cc1` [Example 13, (6R)-1-{4-[3-(2-methoxybenzyloxy)-propoxy]-phenyl}-6-(4-trifluoromethylbenzyloxymethyl)-piperazin-2-one], the IC50 was 68 nM. With `COc1ccccc1COCCCOc1ccc(N2C(=O)CNC[C@@H]2COc2ccc3ccccc3c2)cc1OC` [Example 107, (6R)-1-(3-methoxy-4-[3-(2-methoxybenzyloxy)-propoxy]-phenyl)-6-(naphthalene-2-yloxymethyl)-piperazin-2-one], the 50% inhibitory concentration (IC50) amounted to 537 nM. The figure for `COc1ccccc1COCCCOc1ccc(N2C(=O)CNC[C@@H]2COC(=O)c2ccc(Cl)cc2)cc1` [Example 60, 4-chloro-benzoic acid (2R)-1-{4-[3-(2-methoxybenzyloxy)-propoxy]-phenyl}-6-oxopiperazin-2-yl methyl ester] is more than 1000 nM; for `COc1ccccc1COCCCOc1ccc(N2CCNC[C@@H]2COc2ccc3c(c2)CCCC3)cc1` [Example 40, (2R)-1-{4-[3-(2-methoxybenzyloxy)-propoxy]-phenyl}-2-(5,6,7,8-tetrahydronaphthalen-2-yloxymethyl)-piperazine] it is 440 nM; for `COc1ccccc1COCCCOc1ccc(N2C(=O)CNC[C@@H]2COc2ccc3ccccc3n2)cc1` [Example 77, (6R)-1-{4-[3-(2-methoxybenzyloxy)-propoxy]-phenyl}-6-(quinolin-2-yloxymethyl)-piperazin-2-one] it is 13100 nM. For the compound `COC(=O)CCN1CCc2ccc(OC[C@H]3CNCC(=O)N3c3ccc(OCCCOCc4ccccc4OC)cc3)cc21` [Example 133, 3-[6-([2R]-1-{4-[3-(2-Methoxybenzyloxy)-propoxy]-phenyl}-6-oxo-piperazin-2-ylmethoxy)-2,3-dihydro-indol-1-yl]-propionic acid methyl ester], the IC50 came to 9.59 nM. The figure for `COc1ccccc1COCCCOc1ccc(N2C(=O)CNC[C@@H]2CNC(=O)c2ccccc2OC)cc1` [Example 82, 2-methoxy-N-([2R]-1-{4-[3-(2-methoxybenzyloxy)-propoxy]-phenyl}-6-oxopiperazin-2-ylmethyl)-benzamide] is more than 1000 nM; for `COc1ccccc1OCCCCOc1ccc(N2CCNC[C@@H]2COc2ccc3ccccc3c2)cc1` [Example 108, (2R)-1-{4-[4-(2-methoxyphenoxy)-butoxy]-phenyl}-2-(naphthalene-2-yloxymethyl)-piperazine] it is 1360 nM. With `COc1ccccc1COCCCOc1ccc(N2C(=O)CNC[C@@H]2COCc2ccccn2)cc1` [Example 29, (6R)-1-{4-[3-(2-methoxybenzyloxy)-propoxy]-phenyl}-6-(pyridin-2-ylmethoxymethyl)-piperazin-2-one] the figure was more than 1000 nM; with `COc1ccccc1COCCCOc1ccc(N2C(=O)CNC[C@@H]2COCc2cccnc2)cc1` [Example 23, (6R)-1-{4-[3-(2-methoxybenzyloxy)-propoxy]-phenyl}-6-(pyridin-3-ylmethoxymethyl)-piperazin-2-one], 117 nM; with `COc1ccccc1COCCCOc1ccc(N2C(=O)CNC[C@@H]2COc2cnccn2)cc1` [Example 79, (6R)-1-{4-[3-(2-methoxybenzyloxy)-propoxy]-phenyl}-6-(pyrazin-2-yloxymethyl)-piperazin-2-one], 76400 nM. As to `CCOC(=O)Cn1ccc2ccc(OC[C@H]3CNCC(=O)N3c3ccc(OCCCOCc4ccccc4OC)cc3)cc21` [Example 132, [6-([2R]-1-{4-[3-(2-Methoxybenzyloxy)-propoxy]-phenyl}-6-oxo-piperazin-2-ylmethoxy)-indol-1-yl]-acetic acid ethyl ester], the IC50 stood at 6 nM. The figure for `COc1ccccc1OCCCOCc1ccc(N2C(=O)CNC[C@@H]2COCc2ccc(F)cc2)cc1` [Example 76, (6R)-6-(4-fluorobenzyloxymethyl)-1-{4-[3-(2-methoxyphenoxy)-propoxymethyl]-phenyl}-piperazin-2-one] is more than 1000 nM; for `COc1ccccc1COCCCOc1ccc(N2C(=O)CNC[C@@H]2COCc2ccc(C#N)cc2)cc1` [Example 28, (6R)-4-(1-{4-[3-(2-methoxybenzyloxy)-propoxy]-phenyl}-6-oxopiperazin-2-ylmethoxymethyl)-benzonitrile] it is more than 1000 nM. On to `COc1ccccc1COCCCOc1ccc(N2C(=O)CNC[C@@H]2COc2ccc(-c3ccccc3)cc2)cc1` [Example 92, (6R)-6-(biphenyl-4-yloxymethyl)-1-(4-[3-(2-methoxybenzyloxy)-propoxy]-phenyl)-piperazin-2-one], for which the IC50 worked out at 2520 nM. The figure for `c1ccc(COCCCOc2ccc(N3CCNC[C@@H]3COc3ccc4ccccc4c3)cc2)cc1` [Example 38, (2R)-1-[4-(3-benzyloxypropoxy)-phenyl]-2-(naphthalen-2-yloxymethyl)-piperazine] is 1420 nM. Take `COC(=O)c1cc(N2C(=O)CNC[C@@H]2COc2ccc3ccccc3c2)ccc1OCCCOCc1ccccc1OC` [Example 96, 2-[(5R)-3-(2-methoxybenzyloxy)-propoxy]-5-[2-(naphthalene-2-yloxymethyl)-6-oxopiperazin-1-yl]-benzoic acid methyl ester]: the IC50 was more than 1000 nM. With `COc1ccccc1OCCCCOc1ccc(N2C(=O)CNC[C@@H]2COCc2ccc(F)cc2)cc1` [Example 71, (6R)-6-(4-fluorobenzyloxymethyl)-1-{4-[4-(2-methoxyphenoxy)-butoxy]-phenyl}-piperazin-2-one] the figure was 3840 nM; with `COc1ccccc1COCCOCc1ccc(N2CCNC[C@@H]2COc2ccc3ccccc3c2)cc1` [Example 94, (2R)-1-{4-[2-(2-methoxybenzyloxy)-ethoxymethyl]-phenyl}-2-(naphthalene-2-yloxymethyl)-piperazine], 2550 nM. The figure for `COC(=O)CCn1ccc2cc(OC[C@H]3CNCC(=O)N3c3ccc(OCCCOCc4ccccc4OC)cc3)ccc21` [Example 119, 3-[5-([2R]-1-{4-[3-(2-Methoxybenzyloxy)-propoxy]-phenyl}-6-oxopiperazin-2-ylmethoxy)-indol-1-yl]-propionic acid methyl ester] is 1.62 nM; for `COc1ccccc1COCCCOc1ccc(N2C(=O)CNC[C@@H]2CNC(=O)c2ccccc2F)cc1` [Example 86, 2-fluoro-N-([2R]-1-{4-[3-(2-methoxybenzyloxy)-propoxy]-phenyl}-6-oxopiperazin-2-ylmethyl)-benzamide] it is more than 1000 nM. The figure for `CCOc1ccccc1COCCCOc1ccc(N2CCNC[C@@H]2COc2ccc3ccccc3c2)cc1` [Example 88, (2R)-1-{4-[3-(2-ethoxybenzyloxy)-propoxy]-phenyl}-2-(naphthalen-2-yloxymethyl)-piperazine] is 1980 nM.

These data come from US20040214832A1, “Piperazine derivative renin inhibitors” (priority 2003, published 2004).
